Patent US10414811B2, “Protease-resistant lipidated GLP-1 analogs” (MEDIMMUNE LIMITED, priority 2015, dated 2019)
Like-named read-outs stand apart in the source and are kept apart here. Numbered stars: 1 amine (or outer) side, 2 acyl side, 3 side chain; on linkers, the order of the positions; unused ones are H or OH. Square brackets hold non-standard residues; d marks the D form. Side chains are listed from the residue outwards. Peptide text beside a SMILES is read from it. * marks the point of attachment. γGlu = O=C(O)[C@H](CCC(=O)[*:2])N[*:1]; Palmitoyl = CCCCCCCCCCCCCCCC(=O)*; αMeF = C[C@](N)(Cc1ccccc1)C(=O)O; αMeK = C[C@](N)(CCCCN)C(=O)O; Lauroyl = CCCCCCCCCCCC(=O)*; αMeS = C[C@](N)(CO)C(=O)O; AEEA = NCCOCCOCC(=O)O; Aib = CC(C)(N)C(=O)O

Tests used:
Assay type in all cases: cell-based
[1] = target: T1, human glucose-dependent insulinotropic peptide receptor (GIPR) (Homo sapiens, UniProt P48546); assay: cAMP assay, human GIPR cells
T1 construct: expressed in transfected cells
T1 sequence (P48546 22-466): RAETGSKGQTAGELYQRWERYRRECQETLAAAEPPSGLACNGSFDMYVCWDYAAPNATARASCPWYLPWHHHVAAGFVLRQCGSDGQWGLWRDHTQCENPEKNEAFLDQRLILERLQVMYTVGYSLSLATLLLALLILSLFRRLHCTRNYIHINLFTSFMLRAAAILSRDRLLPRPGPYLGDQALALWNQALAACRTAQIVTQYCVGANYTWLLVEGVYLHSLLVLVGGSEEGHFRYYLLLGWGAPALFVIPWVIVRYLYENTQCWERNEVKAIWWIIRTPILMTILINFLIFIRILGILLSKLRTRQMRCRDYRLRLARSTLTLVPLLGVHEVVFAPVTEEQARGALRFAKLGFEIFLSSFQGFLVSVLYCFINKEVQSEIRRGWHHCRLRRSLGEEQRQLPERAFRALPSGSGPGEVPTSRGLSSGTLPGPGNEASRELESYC
How it was run: (§1)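 Peptide-stimulated cAMP measured by two-step HTRF after a 30 min room-temperature incubation with receptor-expressing cells (hGLP-1R, hGIPR at 1×10^5 cells/ml; hGCGR at 2×10^5 cells/ml). Duplicate dilutions; EC50 from 4-parameter logistic fit of % Delta F.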

[2] = target: T2, human GLP-1 receptor (GLP-1R) (Homo sapiens, UniProt P43220); assay: cAMP assay, human GLP-1R cells
T2 construct: expressed in transfected cells
How it was run: as §1

[3] = target: T3, human glucagon receptor (GCGR) (Homo sapiens, UniProt P47871); assay: cAMP assay, human GCGR cells
T3 construct: expressed in transfected cells
How it was run: as §1

[4] = cAMP assay, first determination (n1), read-out: Primary assay EC50 GIP-R (n1)
[5] = cAMP assay, second determination (n2), read-out: Primary assay EC50 GIP-R (n2)
[6] = cAMP assay, first determination (n1), read-out: Primary assay EC50 GLP-1R n1
[7] = cAMP assay, second determination (n2), read-out: Primary assay EC50 GLP-1R n2
[8] = mean of n1 and n2, read-out: Mean pM GLP-1R
[9] = cAMP assay, first determination (n1), read-out: Primary assay EC50 Gluc-R (n1)
[10] = cAMP assay, second determination (n2), read-out: Primary assay EC50 Gluc-R (n2)

T2 sequence (P43220 24-463): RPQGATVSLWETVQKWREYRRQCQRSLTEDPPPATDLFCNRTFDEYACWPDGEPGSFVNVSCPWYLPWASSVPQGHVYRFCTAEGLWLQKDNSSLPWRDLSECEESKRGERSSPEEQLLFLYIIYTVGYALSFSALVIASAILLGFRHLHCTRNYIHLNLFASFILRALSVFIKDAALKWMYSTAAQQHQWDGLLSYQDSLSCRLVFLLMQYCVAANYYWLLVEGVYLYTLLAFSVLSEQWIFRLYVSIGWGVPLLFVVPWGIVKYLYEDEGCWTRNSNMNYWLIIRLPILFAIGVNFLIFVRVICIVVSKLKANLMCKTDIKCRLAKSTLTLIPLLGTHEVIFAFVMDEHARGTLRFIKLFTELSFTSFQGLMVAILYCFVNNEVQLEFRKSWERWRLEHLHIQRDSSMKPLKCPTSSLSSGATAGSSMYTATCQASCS
T3 sequence (P47871 26-477): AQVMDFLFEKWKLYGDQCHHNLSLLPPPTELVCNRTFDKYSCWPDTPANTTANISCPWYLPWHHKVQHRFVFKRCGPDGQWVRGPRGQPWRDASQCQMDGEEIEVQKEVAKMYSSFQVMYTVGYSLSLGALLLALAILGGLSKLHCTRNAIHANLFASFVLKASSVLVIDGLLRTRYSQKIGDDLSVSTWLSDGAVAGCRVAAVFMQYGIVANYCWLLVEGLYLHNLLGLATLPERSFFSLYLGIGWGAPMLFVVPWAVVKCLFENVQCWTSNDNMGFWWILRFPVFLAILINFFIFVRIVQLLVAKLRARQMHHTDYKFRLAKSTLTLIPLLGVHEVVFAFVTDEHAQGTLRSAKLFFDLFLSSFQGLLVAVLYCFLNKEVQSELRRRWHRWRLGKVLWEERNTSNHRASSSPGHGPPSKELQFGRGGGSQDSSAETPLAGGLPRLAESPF

EC50 ([1]; tris-lipidated peptides, first replicate, read-out: Primary assay EC50 GIP-R (n1))	EC50 ([2]; tris-lipidated peptides, mean of n1 and n2, read-out: Primary assay EC50 Mean pM GLP-1R)	EC50 ([2]; tris-lipidated peptides, replicate n1, read-out: Primary assay EC50 GLP-1R n1)	EC50 ([2]; tris-lipidated peptides, replicate n2, read-out: Primary assay EC50 GLP-1R n2)	EC50 ([3]; tris-lipidated peptides, second replicate, read-out: Primary assay EC50 Gluc-R (n2))	EC50 [1, 4]	EC50 [1, 5]	EC50 [2, 6]	EC50 [2, 7]	EC50 [2, 8]	EC50 [3, 9]	EC50 [3, 10]	Compound	EC50 ([1]; Primary assay EC50 GIP-R (n1), cAMP assay, first determination (n1))	EC50 ([1]; read-out: Primary assay EC50 GIP-R (n2), cAMP assay, second determination (n2))	EC50 ([3]; Primary assay EC50 Gluc-R (n1), cAMP assay, first determination (n1))	EC50 ([3]; read-out: Primary assay EC50 Gluc-R (n2), cAMP assay, second determination (n2))
19.9 nM	92.4 pM	78.8 pM	106 pM	19.9 nM								CCCCCCCCCCCC(=O)N[C@@H](CCC(=O)NCCOCCOCC(=O)NCCOCCOCC(=O)NCCCC[C@H](NC(=O)CNC(=O)[C@H](CCC(=O)O)NC(=O)[C@H](CC(C)C)NC(=O)[C@H](CCCCNC(=O)COCCOCCNC(=O)COCCOCCNC(=O)CC[C@H](NC(=O)CCCCCCCCCCC)C(=O)O)NC(=O)[C@H](CO)NC(=O)[C@](C)(CO)NC(=O)[C@@H](NC(=O)[C@H](CC(=O)O)NC(=O)[C@H](CO)NC(=O)[C@@H](NC(=O)[C@](C)(Cc1ccccc1)NC(=O)[C@H](CO)NC(=O)CNC(=O)[C@H](CCC(=O)O)NC(=O)C(C)(C)NC(=O)[C@@H](N)Cc1c[nH]cn1)[C@@H](C)O)C(C)C)C(=O)N[C@@H](C)C(=O)N[C@@H](C)C(=O)N[C@@](C)(CCCCN)C(=O)N[C@@H](CCC(=O)O)C(=O)N[C@@H](Cc1ccccc1)C(=O)N[C@H](C(=O)N[C@@H](CCCCNC(=O)COCCOCCNC(=O)COCCOCCNC(=O)CC[C@H](NC(=O)CCCCCCCCCCC)C(=O)O)C(=O)N[C@@H](Cc1ccccc1)C(=O)N[C@H](C(=O)N[C@H](C(=O)N[C@@H](CCC(=O)O)C(=O)NCC(=O)NCC(N)=O)C(C)C)C(C)C)[C@@H](C)CC)C(=O)O [compound 448] (H-H[Aib]EGS[αMeF]TSDV[αMeS]SK([AEEA-AEEA-γGlu-Lauroyl])LEGK([AEEA-AEEA-γGlu-Lauroyl])AA[αMeK]EFIK([AEEA-AEEA-γGlu-Lauroyl])FVVEGG-NH2)				
					≥ 26 nM	≥ 26 nM	390 pM	320 pM	351 pM	≥ 26 nM	≥ 26 nM	CC[C@H](C)[C@H](NC(=O)[C@](C)(Cc1ccccc1)NC(=O)[C@H](CCC(=O)O)NC(=O)[C@H](CCCCNC(=O)CCCCCNC(=O)CCCCCNC(=O)CCCCCNC(=O)CCCCCCCCCCCCCCCCC(=O)O)NC(=O)[C@H](C)NC(=O)[C@H](C)NC(=O)[C@H](CCC(=O)O)NC(=O)CNC(=O)[C@H](CCC(=O)O)NC(=O)[C@H](CC(C)C)NC(=O)[C@](C)(Cc1ccccc1)NC(=O)[C@H](CO)NC(=O)[C@](C)(CO)NC(=O)[C@@H](NC(=O)[C@H](CC(=O)O)NC(=O)[C@H](CO)NC(=O)[C@@H](NC(=O)[C@](C)(Cc1ccccc1)NC(=O)[C@H](CO)NC(=O)CNC(=O)[C@H](CCC(=O)O)NC(=O)C(C)(C)NC(=O)[C@@H](N)Cc1c[nH]cn1)[C@@H](C)O)C(C)C)C(=O)N[C@@H](C)C(=O)N[C@@](C)(Cc1ccccc1)C(=O)N[C@H](C(=O)N[C@H](C(=O)N[C@@](C)(CCCCN)C(=O)NCC(=O)NCC(N)=O)C(C)C)C(C)C [compound 160]				
					≥ 27 nM	≥ 27 nM	280 pM	230 pM	254 pM	≥ 27 nM	≥ 27 nM	CC[C@H](C)[C@H](NC(=O)[C@](C)(Cc1ccccc1)NC(=O)[C@H](CCC(=O)O)NC(=O)[C@H](CCCCNC(=O)CCCCCNC(=O)CCCCCNC(=O)CCCCCCCCCCCCCCCCC(=O)O)NC(=O)[C@H](C)NC(=O)[C@H](C)NC(=O)[C@H](CCC(=O)O)NC(=O)CNC(=O)[C@H](CCC(=O)O)NC(=O)[C@H](CC(C)C)NC(=O)[C@](C)(Cc1ccccc1)NC(=O)[C@H](CO)NC(=O)[C@](C)(CO)NC(=O)[C@@H](NC(=O)[C@H](CC(=O)O)NC(=O)[C@H](CO)NC(=O)[C@@H](NC(=O)[C@](C)(Cc1ccccc1)NC(=O)[C@H](CO)NC(=O)CNC(=O)[C@H](CCC(=O)O)NC(=O)C(C)(C)NC(=O)[C@@H](N)Cc1c[nH]cn1)[C@@H](C)O)C(C)C)C(=O)N[C@@H](C)C(=O)N[C@@](C)(Cc1ccccc1)C(=O)N[C@H](C(=O)N[C@H](C(=O)N[C@@](C)(CCCCN)C(=O)NCC(=O)NCC(N)=O)C(C)C)C(C)C [compound 159]				
					≥ 26 nM	≥ 25.6 nM	4900 pM	4430 pM	4660 pM	≥ 26 nM	≥ 25.6 nM	CC[C@H](C)[C@H](NC(=O)[C@](C)(Cc1ccccc1)NC(=O)[C@H](CCC(=O)O)NC(=O)[C@](C)(CCCCN)NC(=O)[C@H](C)NC(=O)[C@H](C)NC(=O)[C@H](CCC(=O)O)NC(=O)CNC(=O)[C@H](CCC(=O)O)NC(=O)[C@H](CC(C)C)NC(=O)[C@](C)(Cc1ccccc1)NC(=O)[C@H](CO)NC(=O)[C@](C)(CO)NC(=O)[C@@H](NC(=O)[C@H](CC(=O)O)NC(=O)[C@H](CO)NC(=O)[C@@H](NC(=O)[C@H](CCCCNC(=O)COCCOCCNC(=O)COCCOCCNC(=O)CC[C@H](NC(=O)CCCCCCCCCCCCCCCCC(=O)O)C(=O)O)NC(=O)[C@H](CO)NC(=O)CNC(=O)[C@H](CCC(=O)O)NC(=O)C(C)(C)NC(=O)[C@@H](N)Cc1c[nH]cn1)[C@@H](C)O)C(C)C)C(=O)N[C@@H](C)C(=O)N[C@@](C)(Cc1ccccc1)C(=O)N[C@H](C(=O)N[C@H](C(=O)N[C@@](C)(CCCCN)C(=O)NCC(=O)NCC(N)=O)C(C)C)C(C)C [compound 123]				
					≥ 28 nM	≥ 28 nM	130 pM	160 pM	146 pM	≥ 28 nM	≥ 28 nM	CCCCCCCCCCCCCCCC(=O)N[C@@H](CCC(=O)NCCCC[C@H](NC(=O)[C@@H](NC(=O)[C@](C)(Cc1ccccc1)NC(=O)[C@H](C)NC(=O)[C@@H](NC(=O)[C@](C)(Cc1ccccc1)NC(=O)[C@H](CCC(=O)O)NC(=O)[C@](C)(CCCCN)NC(=O)[C@H](C)NC(=O)[C@H](C)NC(=O)[C@H](CCC(=O)O)NC(=O)CNC(=O)[C@H](CCC(=O)O)NC(=O)[C@H](CC(C)C)NC(=O)[C@](C)(Cc1ccccc1)NC(=O)[C@H](CO)NC(=O)[C@](C)(CO)NC(=O)[C@@H](NC(=O)[C@H](CC(=O)O)NC(=O)[C@H](CO)NC(=O)[C@@H](NC(=O)[C@](C)(Cc1ccccc1)NC(=O)[C@H](CO)NC(=O)CNC(=O)[C@H](CCC(=O)O)NC(=O)C(C)(C)NC(=O)[C@@H](N)Cc1c[nH]cn1)[C@@H](C)O)C(C)C)[C@@H](C)CC)C(C)C)C(=O)N[C@@](C)(CCCCN)C(=O)NCC(=O)NCC(N)=O)C(=O)O [compound 73] (H-H[Aib]EGS[αMeF]TSDV[αMeS]S[αMeF]LEGEAA[αMeK]E[αMeF]IA[αMeF]VK([γGlu-Palmitoyl])[αMeK]GG-NH2)				

Compound	EC50 ([1]; tris-lipidated peptides, first replicate, read-out: Primary assay EC50 GIP-R (n1))	EC50 ([2]; tris-lipidated peptides, mean of n1 and n2, read-out: Primary assay EC50 Mean pM GLP-1R)	EC50 ([2]; tris-lipidated peptides, replicate n1, read-out: Primary assay EC50 GLP-1R n1)	EC50 ([2]; tris-lipidated peptides, replicate n2, read-out: Primary assay EC50 GLP-1R n2)	EC50 ([3]; tris-lipidated peptides, second replicate, read-out: Primary assay EC50 Gluc-R (n2))	EC50 [1, 4]	EC50 [1, 5]	EC50 [2, 6]	EC50 [2, 7]	EC50 [2, 8]	EC50 [3, 9]	EC50 [3, 10]	EC50 ([1]; Primary assay EC50 GIP-R (n1), cAMP assay, first determination (n1))	EC50 ([1]; read-out: Primary assay EC50 GIP-R (n2), cAMP assay, second determination (n2))	EC50 ([3]; Primary assay EC50 Gluc-R (n1), cAMP assay, first determination (n1))	EC50 ([3]; read-out: Primary assay EC50 Gluc-R (n2), cAMP assay, second determination (n2))
CC[C@H](C)[C@H](NC(=O)[C@](C)(Cc1ccccc1)NC(=O)[C@H](CCC(=O)O)NC(=O)[C@H](CCCCNC(=O)CC[C@H](NC(=O)CC[C@H](NC(=O)CCCCCCCCCCCOc1ccc(C(=O)O)cc1)C(=O)O)C(=O)O)NC(=O)[C@H](C)NC(=O)[C@H](C)NC(=O)[C@H](CCC(=O)O)NC(=O)CNC(=O)[C@H](CCC(=O)O)NC(=O)[C@H](CC(C)C)NC(=O)[C@](C)(Cc1ccccc1)NC(=O)[C@H](CO)NC(=O)[C@](C)(CO)NC(=O)[C@@H](NC(=O)[C@H](CC(=O)O)NC(=O)[C@H](CO)NC(=O)[C@@H](NC(=O)[C@](C)(Cc1ccccc1)NC(=O)[C@H](CO)NC(=O)CNC(=O)[C@H](CCC(=O)O)NC(=O)C(C)(C)NC(=O)[C@@H](N)Cc1c[nH]cn1)[C@@H](C)O)C(C)C)C(=O)N[C@@H](C)C(=O)N[C@@](C)(Cc1ccccc1)C(=O)N[C@H](C(=O)N[C@H](C(=O)N[C@@](C)(CCCCN)C(=O)NCC(=O)NCC(N)=O)C(C)C)C(C)C [compound 138]								19 pM	15 pM	17.2 pM			≥ 26 nM	≥ 26 nM	≥ 26 nM	≥ 26 nM
